This note sets out measurements from paper PMC5100903, “Tissue Kallikrein Inhibitors Based on the Sunflower Trypsin Inhibitor Scaffold – A Potential Therapeutic Intervention for Skin Diseases” (PLoS ONE, 2016).

The structures appear in SMILES notation. Read-outs that look alike come from different tables or passages of the source. Positions of bridges follow the written chain, without caps; N, C: chain ends. Residues, ends and D or L forms follow the SMILES beside them.

One assay has as its target T1, KLK14 (Homo sapiens, UniProt Q9P0G3).
T1 construct: purchased R&D
T1 sequence (Q9P0G3 25-251): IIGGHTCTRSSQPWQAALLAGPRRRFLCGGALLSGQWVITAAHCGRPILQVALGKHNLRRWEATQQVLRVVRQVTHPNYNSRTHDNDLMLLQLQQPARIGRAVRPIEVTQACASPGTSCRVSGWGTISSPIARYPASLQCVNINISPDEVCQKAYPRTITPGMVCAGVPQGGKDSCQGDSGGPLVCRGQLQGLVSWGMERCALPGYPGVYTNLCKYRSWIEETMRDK
In words: biochemical. Type of assay: biochemical. How it is done:
All assays were performed on 96-well microplates and the change in relative fluorescence unit (RFU) was measured by fluorescence spectrometer (BMG FLUOstar OPTIMA). […] Stock solution of Boc-VPR-AMC was prepared by dissolving the solid in dimethyl sulfoxide to 100 mM and 10 mM for MeOSuc-AAPV. For BODIPY_FL casein, it was reconstituted to 1 mg/mL in 1xPBS. […] The % of inhibition was calculated by the following equation: % of Inhibition=(1−(Sample RFU − Min RFU)/(Max RFU − Min RFU)) X100
Each inhibition curves were done in triplicates with a minimum of five concentration points fitted. Fitting of each curve was done using SigmaPlot with the Four Parameter Logistic Function and the IC50 calculated. […] All tested compounds were reconstituted to stock solution in water.
KLK7 and KLK14 were activated by addition of 1 mM f/c CaCl2 (Sigma, Dorset, U.K.), 0.05% v/v Brij35 (Sigma, Dorset, U.K.), 20 nM f/c thermolysin (Sigma, Dorset, U.K.) and incubated at 37°C for 1 hour. The reaction was stopped by addition of ethylenediaminetetraacetic acid (EDTA, 50 mM f/c). […] The RFU value reached by the thermolysin control was used as the minimum RFU for calculating the % of inhibition for KLK7.
The diluent for all the tested compounds, protein and substrate (except KLK7, which was done with 10 mM Tris pH 7.8) was 1xPBS pH 8.0–8.9. […] 20μL of the ligand-protein mixture was pipetted to a well of a 96-well microplate in triplicates. The reaction was started by addition of 90–100 μL of the diluted substrate solution (contained 0.05% v/v Brij35) and the plate incubated at 25°C but 37°C for KLK7. RFU reading for each well was taken 6 minutes (trypsin) or 15 minutes (KLK14, KLK5, KLK8, matriptase, human neutrophil elastase, porcine pancreatic elastase 1, plasma kallikrein and plasmin) or 20 hours (KLK7) after substrate addition.

The next assay has as its target T2, KLK5 (Homo sapiens, UniProt Q9Y337).
T2 construct: purchased Novoprotein
T2 sequence (Q9Y337 23-293): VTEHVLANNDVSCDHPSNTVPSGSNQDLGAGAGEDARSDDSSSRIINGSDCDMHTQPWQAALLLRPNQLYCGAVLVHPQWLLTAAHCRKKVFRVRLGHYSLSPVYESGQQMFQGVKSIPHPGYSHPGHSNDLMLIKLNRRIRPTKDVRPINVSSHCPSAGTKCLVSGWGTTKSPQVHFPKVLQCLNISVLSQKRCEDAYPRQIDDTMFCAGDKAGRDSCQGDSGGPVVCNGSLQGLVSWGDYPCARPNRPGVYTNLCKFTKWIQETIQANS
Kind of assay: biochemical. The format is binding. The conditions noted are these: for Stoichiometry (N) / ΔH / ΔS / ΔG / Ka: ITC; for ΔG: 25°C; for Ka: 25°C (Table S2, unit not given). How it is done:
ITC experiments were performed on a MicroCal iTC200 calorimeter (GE Healthcare, Uppsala, Sweden) at 298.15 K with a stirring speed of 750 revolutions per minute. Concentrated (450 μM) ligand solutions were injected into protein (KLK5) solution (20 μM, 280 μL sample volume) in the sample cell. Injection volumes were 2 μL for I10H and Analogue 1 and 1 μL for Analogue 2 and 6 with a spacing of 120 seconds between each injection. Concentrations of ligands were determined by dried weight and they were reconstituted to 10 mM stock in H2O. Concentration of KLK5 was determined by UV280 calculated with an extinction coefficient of 38680 and molecular weight of 32KDa (including weight of glycosylation). The protein solution were buffer exchanged using spin column to 1xPBS (137 mM NaCl, 2.7 mM KCl, 4.3 mM Na2HPO4, 1.47 mM KH2PO4 pH 8.0) or 20 mM MES buffer (with 150 mM NaCl, pH 5.5). Ligand stocks were diluted in those buffers (4.5 μL + 95.5 μL buffer), and then equal v/v % of H2O was added to the protein solution after buffer exchange to ensure matching buffer contents. Heat of dilution was undetectable in control experiments. Data were analyzed using OriginLab version 7.0.

As a reminder, the IC50 is the concentration at which inhibition is half-maximal. Low readings indicate higher potency, high ones lower potency. The Kd is a measure of binding affinity in units of concentration. At KLK14, `CC[C@H](C)[C@@H]1NC(=O)[C@H](CO)NC(=O)[C@H](CCCNC(=N)N)NC(=O)[C@H]([C@@H](C)O)NC(=O)[C@@H]2CSSC[C@H](NC(=O)[C@H](Cc3c[nH]cn3)NC(=O)[C@@H]3CCCN3C(=O)[C@@H]3CCCN3C1=O)C(=O)N[C@@H](Cc1c[nH]c3ccccc13)C(=O)N1CCC[C@H]1C(=O)N[C@@H](CC(=O)O)C(=O)NCC(=O)N[C@@H](CCCNC(=N)N)C(=O)N2` [Analogue 6] (cyclo(CTRSIPPHCWPDGR); disulfide 1-9) showed an IC50 of 0.024 ± 0.002 µM. In addition, on KLK5, the Kd amounted to 0.02 µM, the ΔG is -43.97 kJ/mol and the Ka came to 5.0E7±1.2E7. Further, the “increase in binding affinity for KLK5 from I10H” value on KLK5 (ITC Kd) was “around 25 times”. For the same compound, on KLK5 (1xPBS pH 8.0, 25°C), the “Stoichiometry (N)” value is recorded as 1.01±0.01, the ΔH turned out to be 8.427 ± 0.0711 kJ/mol and the ΔS is 42.0 cal mol^-1 kelvin^-1.

On KLK14, `CC[C@H](C)[C@@H]1NC(=O)[C@H](CO)NC(=O)[C@H](CCCCN)NC(=O)[C@H]([C@@H](C)O)NC(=O)[C@@H]2CSSC[C@H](NC(=O)[C@H](Cc3c[nH]cn3)NC(=O)[C@@H]3CCCN3C(=O)[C@@H]3CCCN3C1=O)C(=O)N[C@@H](Cc1c[nH]c3ccccc13)C(=O)N1CCC[C@H]1C(=O)N[C@@H](CC(=O)O)C(=O)NCC(=O)N[C@@H](CCCNC(=N)N)C(=O)N2` [Analogue 2] (cyclo(CTKSIPPHCWPDGR); disulfide 1-9) showed an IC50 of 0.085 ± 0.006 µM. On KLK5, this compound registered a Kd of 0.096 µM, a ΔG of -40.08 kJ/mol and a Ka of 1.0E7±1.8E6. In addition, on KLK5 (1xPBS pH 8.0, 25°C), the “Stoichiometry (N)” value was 1.01±0.01, the ΔH came out at 17.56 ± 0.272 kJ/mol and the ΔS was found to be 46.2 cal mol^-1 kelvin^-1.

Turning to `CC[C@H](C)[C@@H]1NC(=O)[C@H](CO)NC(=O)[C@H](CCCCN)NC(=O)[C@H]([C@@H](C)O)NC(=O)[C@@H]2CSSC[C@H](NC(=O)[C@H](Cc3c[nH]cn3)NC(=O)[C@@H]3CCCN3C(=O)[C@@H]3CCCN3C1=O)C(=O)N[C@@H](Cc1ccccc1)C(=O)N1CCC[C@H]1C(=O)N[C@@H](CC(=O)O)C(=O)NCC(=O)N[C@@H](CCCNC(=N)N)C(=O)N2` [Analogue I10H] (cyclo(CFPDGRCTKSIPPH); disulfide 1-7), the IC50 on KLK14 (enzyme 10 nM, Boc-VPR-AMC 45 μM, 25°C, 15 minutes) is 0.47 ± 0.047 µM. Moreover, at KLK14 (from Table 3 IC50), the “fold potency drop on KLK14 compared to native SFTI” value was about 20 fold. The Kd at KLK5 (1xPBS pH 8.0, 25°C, read-out: ITC Kd) is 0.485 µM. Besides, on KLK5 (1xPBS pH 8.0, 25°C), the “Stoichiometry (N)” value is given as 1.06±0.02, the ΔH stood at 8.213 ± 0.213 kJ/mol and the ΔS amounted to 35.5 cal mol^-1 kelvin^-1. On KLK5, this compound displayed a ΔG of -36.07 kJ/mol and a Ka of 2.1E6±5.6E5.
